Measured values from ChEMBL document CHEMBL4507276 (2021).

Experiments:
Conditions in all cases: Compound concentration 1000.0 nM
[1] = molecular target: T1, cGMP-dependent protein kinase 2 (Homo sapiens) (UniProt Q13237)
T1 sequence (whole entry): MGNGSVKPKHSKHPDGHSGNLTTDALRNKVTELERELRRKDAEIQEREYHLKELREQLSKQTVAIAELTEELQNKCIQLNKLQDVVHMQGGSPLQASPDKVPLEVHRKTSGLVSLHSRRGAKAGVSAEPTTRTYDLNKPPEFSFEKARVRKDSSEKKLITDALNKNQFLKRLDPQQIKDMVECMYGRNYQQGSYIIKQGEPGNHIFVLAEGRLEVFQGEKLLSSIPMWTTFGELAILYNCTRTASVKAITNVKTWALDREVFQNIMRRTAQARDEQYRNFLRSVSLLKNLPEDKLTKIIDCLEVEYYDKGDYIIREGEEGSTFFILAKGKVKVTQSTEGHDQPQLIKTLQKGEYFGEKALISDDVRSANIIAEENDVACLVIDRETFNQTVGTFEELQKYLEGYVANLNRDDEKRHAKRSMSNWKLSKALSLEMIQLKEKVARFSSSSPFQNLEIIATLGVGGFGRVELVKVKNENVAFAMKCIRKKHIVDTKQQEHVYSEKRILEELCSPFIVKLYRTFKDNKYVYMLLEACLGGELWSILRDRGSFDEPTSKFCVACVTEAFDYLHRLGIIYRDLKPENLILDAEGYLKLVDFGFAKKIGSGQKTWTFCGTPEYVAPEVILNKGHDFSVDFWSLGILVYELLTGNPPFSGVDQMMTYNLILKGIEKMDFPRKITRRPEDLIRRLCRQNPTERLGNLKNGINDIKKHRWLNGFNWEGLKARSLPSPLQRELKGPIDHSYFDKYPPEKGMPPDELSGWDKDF

[2] = molecular target: T2, Serine/threonine-protein kinase Nek1 (Homo sapiens) (UniProt Q96PY6)
T2 sequence (whole entry): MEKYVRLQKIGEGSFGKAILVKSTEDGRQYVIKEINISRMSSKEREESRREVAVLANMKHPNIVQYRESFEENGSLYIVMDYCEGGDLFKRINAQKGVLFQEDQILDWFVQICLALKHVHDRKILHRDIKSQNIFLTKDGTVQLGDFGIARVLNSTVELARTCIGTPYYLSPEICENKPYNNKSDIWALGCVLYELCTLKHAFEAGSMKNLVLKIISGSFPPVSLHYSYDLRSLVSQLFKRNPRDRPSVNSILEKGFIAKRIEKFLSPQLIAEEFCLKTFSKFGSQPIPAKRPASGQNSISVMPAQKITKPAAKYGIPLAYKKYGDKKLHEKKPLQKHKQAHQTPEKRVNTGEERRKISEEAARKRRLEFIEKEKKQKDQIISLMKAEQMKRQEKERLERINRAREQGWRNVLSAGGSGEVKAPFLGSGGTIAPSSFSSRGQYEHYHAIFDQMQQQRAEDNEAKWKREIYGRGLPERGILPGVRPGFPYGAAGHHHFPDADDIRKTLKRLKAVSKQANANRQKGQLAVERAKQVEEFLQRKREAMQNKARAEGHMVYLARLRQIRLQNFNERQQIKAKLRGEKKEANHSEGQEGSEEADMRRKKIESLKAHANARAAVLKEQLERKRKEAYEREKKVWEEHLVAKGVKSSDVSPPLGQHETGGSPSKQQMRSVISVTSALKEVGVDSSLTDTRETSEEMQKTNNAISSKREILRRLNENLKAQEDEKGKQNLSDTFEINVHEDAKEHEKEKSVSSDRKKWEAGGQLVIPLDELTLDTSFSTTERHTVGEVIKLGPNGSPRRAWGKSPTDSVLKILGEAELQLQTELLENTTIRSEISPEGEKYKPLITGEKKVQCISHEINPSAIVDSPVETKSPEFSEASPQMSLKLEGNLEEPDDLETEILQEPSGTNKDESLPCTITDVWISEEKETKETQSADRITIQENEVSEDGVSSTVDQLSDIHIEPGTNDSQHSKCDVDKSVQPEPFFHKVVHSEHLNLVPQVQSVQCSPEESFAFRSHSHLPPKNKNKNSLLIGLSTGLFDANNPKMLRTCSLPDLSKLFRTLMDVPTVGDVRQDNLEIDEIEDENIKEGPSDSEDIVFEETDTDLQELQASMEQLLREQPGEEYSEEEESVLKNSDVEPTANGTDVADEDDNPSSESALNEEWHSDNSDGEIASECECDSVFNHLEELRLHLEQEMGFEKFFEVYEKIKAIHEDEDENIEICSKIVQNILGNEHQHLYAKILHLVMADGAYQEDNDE

[3] = molecular target: T3, Aurora kinase C (Homo sapiens) (UniProt Q9UQB9)
T3 sequence (whole entry): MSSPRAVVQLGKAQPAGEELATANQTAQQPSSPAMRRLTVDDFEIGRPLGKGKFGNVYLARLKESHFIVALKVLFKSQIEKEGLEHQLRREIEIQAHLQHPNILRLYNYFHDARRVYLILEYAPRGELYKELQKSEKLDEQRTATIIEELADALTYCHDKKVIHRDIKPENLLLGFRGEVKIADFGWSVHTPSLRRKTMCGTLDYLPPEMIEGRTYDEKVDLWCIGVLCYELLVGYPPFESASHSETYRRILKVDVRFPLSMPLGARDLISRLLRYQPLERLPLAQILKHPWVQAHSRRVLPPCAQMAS

Measured: residual activity

CN(C)C(=O)Cn1cc(-c2nc(C3(c4ccc(-c5cnc(N)nc5)cc4)CC3)no2)cn1 [BI 0153]
inactive: [1] 100% | [2] 100% | [3] 100%

CN(C)C(=O)Cn1cc(-c2nc([C@@](C)(c3ccc(-c4cnc(N)nc4)cc3)C3CC3)no2)cn1 [BI 665915]
inactive: [1] 85% | [2] 100% | [3] 100%
